From US20260167675A1, “VIRAL PEPTIDES AND USES THEREOF” (priority 2022, published 2026)

System: human HLA-A11
Experiment: Flow cytometry binding of a pan HLA-A antibody against K562/HLA-A11 cells pulsed with HBV POL606-616 peptides (peptide loading)
Type: cell-based
Conditions: maximum MFI pulsed / maximum MFI un-pulsed cells, loaded if S/N > 1.1; for S/N Peptide Concentration (33 μg/ml): K562/HLA-A11 cells pulsed with 33 μg/ml peptide; for S/N Peptide Concentration (100 μg/ml): K562/HLA-A11 cells pulsed with 100 μg/ml peptide
Procedure: The present Example was designed to assess loading of HBV POL606-616 peptides on HLA-A11 in K562 cells engineered to express human HLA-A11 (K562/HLA-A11 cells). To assess loading of HBV POL606-616 peptides on HLA-A11, K562 cells engineered to express human HLA-A11 (K562/HLA-A11 cells) were pulsed by resuspending the cells in AIM V medium (Gibco. Catalog #31035-025) at a density of 1×10^6 cells/ml followed by the addition of 10 μg/ml human β2-microglobulin (hB2M; EMID Millipore Catalog #475828) and either 100 μg/ml or 33 μg/ml of the indicated peptide (Table 14).
K562/HLA-A11 cells were then incubated overnight at 37° C. Peptide-pulsed cells were then harvested and plated in staining buffer (PBS, without Calcium and Magnesium (Corning, Reference #21-031-CV)+2% FBS (Seradigm, Lot #238B15)) at a density of 200,000 cells per well in a 96-well V-Bottom plate. Cells were incubated with three-fold serial dilutions (5.1 pM-100 nM) with a pan HLA-A antibody (Novus, Catalog #DDX0250P-100) for 30 minutes at 4° C., washed once in staining buffer, and incubated with an Alexa-647 conjugated secondary antibody (Jackson ImmunoResearch, Catalog #115-606-071) at 5 µg/ml for 30 minutes at 4° C. Cells were again washed once in staining buffer and stained with viability dye (CellTrace™ Violet Cell Proliferation Kit, Thermo-Fisher Cat #C34557) for 30 minutes at 4° C. Lastly, cells were washed once in staining buffer and fixed using a 50% solution of BD Cytofix (BD, Catalog #554655). Samples were run and analyzed on an IntelliCyt iQue flow cytometer to calculate mean fluorescence intensity (MFI) on live cells. MFI values were plotted in GraphPad Prism. The secondary antibody alone condition (i.e., no primary antibody) for each dose-response curve was also included in the analysis as a continuation of the three-fold serial dilution and was represented as the lowest dose. The signal-to-noise (S/N) was calculated by dividing the maximum MFI on the pulsed cells by the maximum MFI on un-pulsed K562/HLA-A11 cells (Table 15). Peptides were determined to load if the S/N from pulsed cells/un-pulsed cells was greater than 1.1.

Sequence | S/N Peptide Concentration (33 μg/ml) | S/N Peptide Concentration (100 μg/ml)
GSLPQEHIVQK (Hepatitis B virus) [HBV POL606-616 V1] | 1.6 | 1.4
GTLPQEHIVHK (Hepatitis B virus) [HBV POL606-616 V2] | 1.0 | 1.1
GTLPQEHIVQK (Hepatitis B virus) [HBV POL606-616 V3] | 1.6 | 1.5
GSLPQEHIIQK (Hepatitis B virus) [HBV POL606-616 V4] | 1.5 | 1.5
